# System: Hep G2.2.15 cells
# Assay: Cell viability by MTT, Hep G2.2.15 cells
# Type: cell-based, human
# Method: The Hep G2.2.15 cells were seeded at 3×10^4 cells/well into 96-well culture plates and incubated at 37° C. in 5% CO2 overnight. After 3 to 4 days, the confluent cultures were cultured at 37° C. for another 3 to 5 days for HBV surface antigen (HBsAg) and HBV e-antigen (HBeAg) induction. Various concentrations of test articles including the positive control substance were then added during the 72 hrs induction period. The cultured media were harvested by centrifugation and the levels of HBsAg and HBeAg were analyzed with commercial enzyme-linked immunosorbant assay (ELISA) kits for HBsAg qualitative testing (General Biologicals Corp., SURASE B-96 (TMB)) and that for HBeAg qualitative testing (General Biologicals Corp., EASE BN-96 (TMB)), respectively. The activity expressed in terms of the efficiency of antigen secretion in percentage (hereinafter referred to as “relative activity”) was calculated with the equation Relative activity (%)=The ratio of the amount of antigen in the cultured medium with treatment to that without treatment×100.
# Cell viability was assayed by the MTT method.
smiles,measurement,setting,value
"CC(C)(C)C(=O)OCOP(=O)(COCCn1cnc2c(N)ncnc21)OCOC(=O)C(C)(C)C [Adefovir, Adefovir dipivoxil]","MTT (+) drug/(−) drug (Ratio), cytotoxicity",0.2 uM,0.961
same,"MTT (+) drug/(−) drug (Ratio), cytotoxicity",1 uM,0.953
